In patent US20030049253A1, “Polymeric conjugates for delivery of MHC-recognized epitopes via peptide vaccines” (priority 2001, published 2003):

Assays:
[1] = test system: human amyloid β amino acid residues 1-42 (Aβ42 peptide); assay: Antibody titer to Aβ42 peptide in vaccinated mice; assay type: in vivo; settings: 100 μg Aβ42 peptide per injection s.c., day 0 and day 14; FIG. 5
Method: Mice were immunized with 100 μg Aβ42 peptide per injection. Aβ42 in PBS alone was injected as control. Mice were primed s.c. on day 0 and boosted on day 14. Detection used goat anti-mouse immunoglobulin conjugated to alkaline phosphatase and p-nitrophenyl phosphate.

CD4 receptor = CD4 receptor (Homo sapiens, UniProt P01730); settings: in vitro; cited from earlier work
[2] = test system: R5 and dual-tropic (R5/X4) HIV-1 strains; settings: monocyte-derived macrophages, microglia, primary CD4(+) T cells; cited from earlier work
[3] = test system: CD4+ and CD8+ splenocytes; parameters: species or system BALB/c mice; settings: mouse, in vivo
Mouse spleen cells = assay: In vitro cytokine assay: IFN-γ ELISA of spleen cell culture supernatants; assay type: in vivo; settings: spleen cells cultured with p7g peptide, 24 hours; limit of detection 5 pg/ml; FIG. 3
Method: In vitro cytokine assay. Mouse spleen cells were cultured with p7g peptides in parallel with the ELISpot assays. Culture supernatants were collected 24 hours after addition of peptide, and the concentrations of gamma interferon (IFN-γ) were determined by enzyme-linked immunosorbent assay (ELISA). Briefly, anti-mouse IFN-γ (R46A2; monoclonal antibody, Pharmingen) was diluted in coating buffer (pH 9.6) and coated (1 μg protein/well) onto 96-well enzyme-linked immunosorbent assay (ELISA) plates (Nunc Immunoplates; Nunc. Corp., Naperville, Ill.) by overnight incubation at 4° C. The plates were washed six times in wash buffer, then blocked with PBS containing 0.05% Tween 20 (Sigma), 1% low-fat dry milk (Carnation; Nestle Food Corp., Glendale, Calif.), and 4% goat serum (KPL Laboratories, Gaithersburg, Md.) for 1 hour. After washing, each plate was incubated with samples diluted in PBS containing 1% BSA and 0.05% Tween 20 for 1 hour. The plates were then incubated with rabbit anti-mouse IFN-γ (Cytlmmune Sciences, Inc. College, Md.) diluted 1:1000 in the same PBS solution for 1 hour and washed again six times. […] The bound mouse IFN-γ was quantitated by calorimetric reaction using p-nitrophenyl phosphate as a substrate (KPL Laboratories). The optical density (OD) was measured at 405 nm in a Bio-Tek Plate Reader (Winooski, Vt.). […]

Substance: Aβ42 peptide linked to HA
- antibody titer to Aβ42 peptide [1]: substantial

Substance: AS TTTNYT [Peptide T]
- binding of isolated gp120 and HIV-1 to the CD4 receptor (CD4 receptor): inhibition of the binding
- replication of HIV-1 strains [2]: inhibits replication

Substance: Aβ42 peptide alone
- antibody titer to Aβ42 peptide [1]: no detectable anti-peptide antibody

Substance: AMQMLKETI [free p7g peptide]
- CTL response and INF-γ expression (intracellular staining, flow cytometry) [3]: no CTL or INF-γ expression
- concentration of IFN-γ in culture supernatants (ELISA) (Mouse spleen cells): no measurable IFN-γ
